Measurements taken from publication PMC6426897, “Inhibition of NLRP3 inflammasome activation by cell-permeable stapled peptides” (Scientific Reports, 2019).
Where a SMILES comes first, the peptide text is derived from it. Bridges are numbered along the chain shown (N, C = ends). [ ]: non-standard residue; d: D form. R8 = C=CCCCCCC[C@@](C)(N)C(=O)O; S5 = C=CCCC[C@](C)(N)C(=O)O

Columns and labels:
[1] = Circular dichroism, percentage of helicity (K2D3); assay type: physicochemical; settings: CD, room temperature, water, 100 μM peptide; estimated with K2D3
Source text: The conformation of helix 2 (^16TAEELKKFKLKLLSV^30) bound to ASC^PYD (Fig. 1A) was used as the starting structure for the peptide-protein interaction modeling. Following I,I + 7 stapling scheme, we inserted a hydrocarbon staple across positions 5 and 12 along the peptide and then introduced mutations to produce a set of stapled peptides. Two variants of the template peptide were designed – a short version containing 13 residues (ms_ASC^PYD #6) and a long version containing 15 residues (ms_ASC^PYD #1–5) with two additional residues at the N-terminus (Table 1). These two additional residues were inserted to increase the length of the peptide, thus potentially enabling sufficient conformational flexibility for the region involving the critical Arg3 to remain helical. A similar approach was taken to introduce the staple in the ms_NLRP3^PYD peptide. As determined from Circular Dichroism (CD) spectra, inserting the I,I + 7 staple had the intended effect of increasing helicity of the peptides (Fig. 3). […] Percentage of helicity was much higher for ASC^PYD stapled peptides #5 and #6, 95% and 70% respectively at 100 μM peptide concentration. Percentage of helicity for the peptides were estimated from the web server K2D3[36] using CD data.
Figure 3 Circular dichroism (CD) spectra of (A) NLRP3^PYD and (B) ASC^PYD peptides to measure secondary structures.

[2] = test system: NLRP3 inflammasome; test: IL-18 release from THP-1 cells stimulated with LPS and nigericin (ELISA); assay type: cell-based, human; settings: THP-1, LPS/nigericin; 12.5, 25, 50 and 100 μM; Fig. 8A
Protocol: (§1) Human monocytic THP-1 cells (1 × 10^7 cells) were plated in a 10-cm tissue culture dish and treated with PMA (200 nM) overnight to differentiate monocytic cells into macrophages. Cells were then washed and allowed to rest in fresh media for another day. For stimulation, differentiated THP-1 cells were trypsinized and seeded in 96-well plates (2 × 10^6/well). Peripheral blood mononuclear cells were isolated by Ficoll-Hypaque density gradient centrifugation from buffy coats obtained from anonymous donors provided by the National University Hospital Blood Bank, Singapore. Isolation of monocytes was performed using negative selection with the Monocyte Isolation Kit II (Miltenyi Biotech), following the manufacturer’s instructions. Monocytes were plated in tissue culture non-treated 96-well plates (2.5 × 10^5/well) in 250 µl RPMI 1640-Glutamax media supplemented with 3% human AB serum (Gemini Bio Products). […]
(§2) IL-1β levels were measured using antibodies from eBioscience (cat. #14-7018-81 and #13-7016-85), following the manufacturer’s instructions. IL-18 levels were measured using antibodies from MBL (D044-3 and D045-6) following the manufacturer’s instructions. The absorbance was measured at 450 nm with the reference wavelength at 570 nm, using an M200 Infinite plate reader (Tecan).

[3] = test system: NLRP3 inflammasome; test: IL-1β secretion from LPS-primed primary human monocytes upon ATP stimulation (ELISA); assay type: cell-based; settings: human blood monocytes, LPS 0.1 μg/ml 4 h, ATP 30 min; 25, 50 and 100 μM; Fig. 8B
Protocol: as §1, §2

[4] = test system: NLRP3 inflammasome; test: IL-18 secretion from LPS-primed primary human monocytes upon ATP stimulation (ELISA); assay type: cell-based; settings: human blood monocytes, LPS 0.1 μg/ml 4 h, ATP 30 min; 25, 50 and 100 μM; Fig. 8B
Protocol: as §1, §2

[5] = test system: ASC; test: Imaging of ASC speck oligomerization in THP-1 cells; assay type: cell-based, human; settings: THP-1, LPS 0.1 μg/ml 4 h, nigericin 10 μM 1 h; 100 μM peptide; Fig. 8E
Protocol: Figure 8 ASC peptides effectively block IL-1β and IL-18 release and ASC oligomerization in human blood monocytes. (A) IL-1β and IL-18 were measured in cell-free supernatants from THP-1 cells incubated with FAM-ASC^PYD #5 or FAM-ASC^PYD #6 (12.5, 25,50 and 100 μM) for 24 h and primed with LPS (0.1 μg/ml, 4 h) followed by stimulation with nigericin (10 μM, 1 h), as assessed by ELISA. (B) Production of IL-1β and IL-18 from human blood monocytes stimulated or not with LPS (0.1 μg/ml, 4 h) alone or in a combination of ATP (5 mM, 30 min) in the presence of FAM-ASC^PYD #5 or FAM-ASC^PYD #6 (25, 50 and 100 μM) peptides. (C,D) Western blot analysis of processed IL-1β p17 (C) and Casp-1 p20 (D) in cell-free supernatants of THP-1 cells primed with LPS (0.1 μg/ml, 4 h), followed by stimulation with nigericin (10 μM, 1 h) in the presence of FAM-ASC^PYD #5 (25, 50 and 100 μM), FAM-ASC^PYD #6 (50 and 100 μM) peptides, or DMSO vehicle. Expression of pro-IL-1β p35 and pro-Casp-1 p50 was assessed in cell lysates. GAPDH was used as loading control. (E) Imaging of ASC speck oligomerization in THP-1 cells treated with LPS (0.1 μg/ml, 4 h) and nigericin (10 μM, 1 h) in the absence or presence of FAM-ASC^PYD #5 or FAM-ASC^PYD #6 (100 μM) peptides. The number of ASC specks were counted manually in at least 100 cells, and the proportion of cells containing a speck was shown. […]

Compound | Percentage of helicity [1] | IL-18 production (in words) [2] | IL-1β secretion (in words) [3] | IL-18 secretion (in words) [4] | ASC speck formation [5]
CC[C@H](C)[C@@H]1NC(=O)[C@H](CCCCN)NC(=O)[C@H](C)NC(=O)[C@H](CC(C)C)NC(=O)[C@H](CCCCN)NC(=O)[C@](C)(NC(=O)[C@H](C)NC(=O)[C@H](CCCNC(=N)N)NC(=O)[C@H](C)NC(=O)[C@@H](NC(C)=O)[C@@H](C)O)CCCCCCC=CCCC[C@@](C)(C(=O)N[C@@H](CCC(=O)O)C(=O)N[C@@H](CO)C(=O)N[C@H](C(N)=O)C(C)C)NC(=O)[C@H](CCCCN)NC1=O [ms_ASC^PYD #5] (Ac-TARA[R8]KLAKIK[S5]ESV-NH2; staple 5-12) | 95% | decreased IL-18 production by LPS/nigericin-stimulated THP-1 cells in a dose-dependent manner | effectively inhibited | effectively inhibited | significantly inhibited speck formation
CC[C@H](C)[C@@H]1NC(=O)[C@H](CCCCN)NC(=O)[C@H](C)NC(=O)[C@H](CCCCN)NC(=O)[C@H](CCCCN)NC(=O)[C@](C)(NC(=O)[C@H](C)NC(=O)[C@H](CCCNC(=N)N)NC(C)=O)CCCCCCC=CCCC[C@@](C)(C(=O)N[C@@H](CCC(=O)O)C(=O)N[C@@H](CO)C(=O)N[C@H](C(N)=O)C(C)C)NC(=O)[C@H](CCCCN)NC1=O [ms_ASC^PYD #6] (Ac-RA[R8]KKAKIK[S5]ESV-NH2; staple 3-10) | 70% | decreased IL-18 production by LPS/nigericin-stimulated THP-1 cells in a dose-dependent manner | effectively inhibited | effectively inhibited | significantly inhibited speck formation
